# In patent publication EP4803094A2, “GLP-1/GIP DUAL, GLP-1/GCG DUAL AND GLP-1/GIP/GCG TRIPLE RECEPTOR AGONISTS” (Sun Pharmaceutical Industries Limited, priority 2023, dated 2024):
# Marks after values point to notes of the source that are not given here.
# Columns and labels:
# Format in all cases: in vivo
# Rats [1] = assay: Oral Glucose Tolerance Test (OGTT) in rats, single injection (blood glucose AUC, body weight, food consumption); details: 30 nM/kg s.c., mean (n=4); for Body weight change (%): 24 hr
# Rats [2] = assay: as above; details: for Food Consumption (g) / Body weight change (%): 30 nM/kg s.c.; for Food Consumption (g): 0-12 hr; for Food Consumption (g) / Body weight change (%) / Blood Glucose AUC(0-120min) Mean: mean (n=4); for Blood Glucose AUC(0-120min) Mean: OGTT 2 g/kg glucose orally, 24 hr post subcutaneous injection of 30 nM/kg; for % Change in Blood glucose AUC(0-120min) vs placebo control: OGTT 24 hr post subcutaneous injection of 30 nM/kg
# Experimental: Animals were divided into 6 groups (n=4/group): a placebo control group, Compound 17, (30 nM/kg), Compound 18 (30 nM/kg), Compound 19 (30 nM/kg), Compound 20 (30 nM/kg), and Retatrutide (30 nM/kg). Animals were fasted for 12 hours before initiation of OGTT. After 24 hours of subcutaneous injection of tests or Retatrutide, blood glucose was measured with blood glucometer (time 0 measurement). All the animals were given 2 g/kg of glucose solution orally. Blood glucose was measured at 10, 20, 40, 60, 90, and 120 min following glucose challenge. Body weight and food consumption were recorded at 12 hr, 48 hr and 72 hr.
# [3] = system: Type 2 diabetes mouse (db/db) model; assay: Efficacy study in db/db mice (blood glucose, body weight, food consumption); details: 10 nM/kg s.c. single dose, mean (n=6)
# Experimental: The effect of the compounds as described herein on blood glucose, food intake and body weight were studied in mice. This study was performed in Type 2 diabetes mouse (db/db) model. The animals were divided into 9 treatment groups (n=6): a diabetic control group, Compound 12 (10 nM/kg), Compound 13 (10 nM/kg), Compound 26 (10 nM/kg), Compound 14 (10 nM/kg), Compound 15 (10 nM/kg), Compound 21 (10 nM/kg), Compound 22 (10 nM/kg), and Tirzepatide (10 nM/kg). Baseline blood glucose was measured from all the animals. All the animals were administered with test item subcutaneously. Blood glucose was measured at 4 hr, 8 hr, 12 hr, 24 hr, 48 hr, 72 hr, and 96 hr post treatment. Delta blood glucose (mM) was calculated. Body weight changes and cumulative food consumption were measured at 48 hr and 96 hr post treatment. Table 3. Effect on Blood Glucose
Structure (SMILES),Food Consumption (g) (Rats [1]; 24-48 hr),Food Consumption (g) (Rats [1]; 24-72 hr),Body weight change (%) (Rats [1]),Food Consumption (g) (Rats [2]),Body weight change (%) (Rats [2]; 48 hr),Body weight change (%) (Rats [2]; 72 hr),Blood Glucose AUC(0-120min) Mean (Rats [2]),% Change in Blood glucose AUC(0-120min) vs placebo control (Rats [2]) [%],Cumulative Food Consumption (g) 0-48 hr [3],Cumulative Food Consumption (g) 0-96 hr [3],Delta Blood Glucose ([3]; 4 hr post treatment) [mM],Delta Blood Glucose (mM) ([3]; 24 hr post treatment),Delta Blood Glucose (mM) ([3]; 48 hr post treatment),Body Weight Change (%) 48 hr [3],Delta Blood Glucose ([3]; 96 hr post treatment) [mM],Body Weight Change (%) 96 hr [3],also measured
CCC[C@H](NC(=O)[C@@H](NC(=O)[C@H](CO)NC(=O)[C@H](Cc1ccc(O)cc1)NC(=O)[C@H](CC(=O)O)NC(=O)[C@H](CO)NC(=O)[C@@H](NC(=O)[C@H](Cc1ccccc1)NC(=O)[C@@H](NC(=O)CNC(=O)[C@H](CCC(N)=O)NC(=O)C(C)(C)NC(=O)[C@@H](N)Cc1ccc(O)cc1)[C@@H](C)O)[C@@H](C)O)[C@@H](C)CC)C(=O)N[C@@H](CC(C)C)C(=O)N[C@@H](CC(=O)O)C(=O)N[C@@H](CCCCN)C(=O)N[C@@H](CCCCNC(=O)COCCOCCNC(=O)C(C)(C)NC(=O)CC[C@H](NC(=O)CCCCCCCCCCCCCCCCCCC(=O)O)C(=O)O)C(=O)N[C@@H](C)C(=O)N[C@@H](CCC(N)=O)C(=O)NC(C)(C)C(=O)N[C@@H](C)C(=O)N[C@@H](Cc1ccccc1)C(=O)N[C@H](C(=O)N[C@@H](CCC(=O)O)C(=O)N[C@@H](Cc1ccc(O)cc1)C(=O)N[C@@H](CC(C)C)C(=O)N[C@@H](CC(C)C)C(=O)N[C@@H](CCC(=O)O)C(=O)NCC(=O)NCC(=O)N1CCC[C@H]1C(=O)N[C@@H](CO)C(=O)N[C@@H](CO)C(=O)NCC(=O)N[C@@H](C)C(=O)N1CCC[C@H]1C(=O)N1CCC[C@H]1C(=O)N1CCC[C@H]1C(=O)N[C@@H](CO)C(N)=O)[C@@H](C)CC [Compound 17],15.8*** g,31.3*** g,-6.8*** %,1.4*** g,-5.0*** %,-3.3*** %,4771.3***,-50.67,,,,,,,,,
"CC[C@H](C)[C@H](NC(=O)[C@H](Cc1ccccc1)NC(=O)[C@H](C)NC(=O)C(C)(C)NC(=O)[C@H](CCC(N)=O)NC(=O)[C@H](C)NC(=O)[C@H](CCCCNC(=O)COCCOCCNC(=O)CC[C@H](NC(=O)CCCCCCCCCCCCCCCCCCC(=O)O)C(=O)O)NC(=O)[C@H](CCCCN)NC(=O)[C@H](CC(=O)O)NC(=O)[C@H](CC(C)C)NC(=O)[C@](C)(CC(C)C)NC(=O)[C@@H](NC(=O)[C@H](CO)NC(=O)[C@H](Cc1ccc(O)cc1)NC(=O)[C@H](CC(=O)O)NC(=O)[C@H](CO)NC(=O)[C@@H](NC(=O)[C@H](Cc1ccccc1)NC(=O)[C@@H](NC(=O)CNC(=O)[C@H](CCC(N)=O)NC(=O)C(C)(C)NC(=O)[C@@H](N)Cc1ccc(O)cc1)[C@@H](C)O)[C@@H](C)O)[C@@H](C)CC)C(=O)N[C@@H](CCC(=O)O)C(=O)N[C@@H](Cc1ccc(O)cc1)C(=O)N[C@@H](CC(C)C)C(=O)N[C@@H](CC(C)C)C(=O)N[C@@H](CCC(=O)O)C(=O)NCC(=O)NCC(=O)N1CCC[C@H]1C(=O)N[C@@H](CO)C(=O)N[C@@H](CO)C(=O)NCC(=O)N[C@@H](C)C(=O)N1CCC[C@H]1C(=O)N1CCC[C@H]1C(=O)N1CCC[C@H]1C(=O)N[C@@H](CO)C(N)=O [Retatrutide, reference compound]",8.6*** g,23.8*** g,-6.0*** %,0.7*** g,-4.5*** %,-2.5*** %,3792.5***,-60.79,,,,,,,,,
CC[C@H](C)[C@H](NC(=O)[C@H](Cc1ccccc1)NC(=O)[C@H](C)NC(=O)C(C)(C)NC(=O)[C@H](CCC(N)=O)NC(=O)[C@H](C)NC(=O)[C@H](CCCCNC(=O)COCCOCCNC(=O)NCCCCNC(=O)CC[C@H](NC(=O)CCCCCCCCCCCCCCCCC(=O)O)C(=O)O)NC(=O)[C@H](CCCCN)NC(=O)[C@H](CC(=O)O)NC(=O)[C@H](CC(C)C)NC(=O)[C@](C)(CC(C)C)NC(=O)[C@@H](NC(=O)[C@H](CO)NC(=O)[C@H](Cc1ccc(O)cc1)NC(=O)[C@H](CC(=O)O)NC(=O)[C@H](CO)NC(=O)[C@@H](NC(=O)[C@H](Cc1ccccc1)NC(=O)[C@@H](NC(=O)CNC(=O)[C@H](CCC(N)=O)NC(=O)C(C)(C)NC(=O)[C@@H](N)Cc1ccc(O)cc1)[C@@H](C)O)[C@@H](C)O)[C@@H](C)CC)C(=O)N[C@@H](CCC(=O)O)C(=O)N[C@@H](Cc1ccc(O)cc1)C(=O)N[C@@H](CC(C)C)C(=O)N[C@@H](CC(C)C)C(=O)N[C@@H](CCC(=O)O)C(=O)NCC(=O)NCC(=O)N1CCC[C@H]1C(=O)N[C@@H](CO)C(=O)N[C@@H](CO)C(=O)NCC(=O)N[C@@H](C)C(=O)N1CCC[C@H]1C(=O)N1CCC[C@H]1C(=O)N1CCC[C@H]1C(=O)N[C@@H](CO)C(N)=O [Compound 19],7.2*** g,17.0*** g,-6.3*** %,1.3*** g,-4.9*** %,-2.6*** %,3848.8***,-60.20,,,,,,,,,
CC[C@H](C)[C@H](NC(=O)[C@H](Cc1ccccc1)NC(=O)[C@H](C)NC(=O)C(C)(C)NC(=O)[C@H](CCC(N)=O)NC(=O)[C@H](C)NC(=O)[C@H](CCCCNC(=O)COCCOCCNC(=O)C(C)(C)NC(=O)CC[C@H](NC(=O)CCCCCCCCCCCCCCCCC(=O)O)C(=O)O)NC(=O)[C@H](CCCCN)NC(=O)[C@H](CC(=O)O)NC(=O)[C@H](CC(C)C)NC(=O)[C@](C)(CC(C)C)NC(=O)[C@@H](NC(=O)[C@H](CO)NC(=O)[C@H](Cc1ccc(O)cc1)NC(=O)[C@H](CC(=O)O)NC(=O)[C@H](CO)NC(=O)[C@@H](NC(=O)[C@H](Cc1ccccc1)NC(=O)[C@@H](NC(=O)CNC(=O)[C@H](CCC(N)=O)NC(=O)C(C)(C)NC(=O)[C@@H](N)Cc1ccc(O)cc1)[C@@H](C)O)[C@@H](C)O)[C@@H](C)CC)C(=O)N[C@@H](CCC(=O)O)C(=O)N[C@@H](Cc1ccc(O)cc1)C(=O)N[C@@H](CC(C)C)C(=O)N[C@@H](CC(C)C)C(=O)N[C@@H](CCC(=O)O)C(=O)NCC(=O)NCC(=O)N1CCC[C@H]1C(=O)N[C@@H](CO)C(=O)N[C@@H](CO)C(=O)NCC(=O)N[C@@H](C)C(=O)N1CCC[C@H]1C(=O)N1CCC[C@H]1C(=O)N1CCC[C@H]1C(=O)N[C@@H](CO)C(N)=O [Compound 12],,,,,,,,,3.1*** g,10.9*** g,-3.2,-13.7*** mM,-11.4*** mM,-8.0*** %,-6.4,-3.7*** %,Delta Blood Glucose (mM) ([3]; 8 hr post treatment): -8.9* mM; Delta Blood Glucose (mM) ([3]; 12 hr post treatment): -13.2*** mM; Delta Blood Glucose (mM) ([3]; 72 hr post treatment): -9.2** mM
CCCC[C@H](NC(=O)[C@@H](NC(=O)[C@H](CO)NC(=O)[C@H](Cc1ccc(O)cc1)NC(=O)[C@H](CC(=O)O)NC(=O)[C@H](CO)NC(=O)[C@@H](NC(=O)[C@H](Cc1ccccc1)NC(=O)[C@@H](NC(=O)CNC(=O)[C@H](CCC(N)=O)NC(=O)C(C)(C)NC(=O)[C@@H](N)Cc1ccc(O)cc1)[C@@H](C)O)[C@@H](C)O)[C@@H](C)CC)C(=O)N[C@@H](CC(C)C)C(=O)N[C@@H](CC(=O)O)C(=O)N[C@@H](CCCCN)C(=O)N[C@@H](CCCCNC(=O)COCCOCCNC(=O)C(C)(C)NC(=O)CC[C@H](NC(=O)CCCCCCCCCCCCCCCCCCC(=O)O)C(=O)O)C(=O)N[C@@H](C)C(=O)N[C@@H](CCC(N)=O)C(=O)NC(C)(C)C(=O)N[C@@H](C)C(=O)N[C@@H](Cc1ccccc1)C(=O)N[C@H](C(=O)N[C@@H](CCC(=O)O)C(=O)N[C@@H](Cc1ccc(O)cc1)C(=O)N[C@@H](CC(C)C)C(=O)N[C@@H](CC(C)C)C(=O)N[C@@H](CCC(=O)O)C(=O)NCC(=O)NCC(=O)N1CCC[C@H]1C(=O)N[C@@H](CO)C(=O)N[C@@H](CO)C(=O)NCC(=O)N[C@@H](C)C(=O)N1CCC[C@H]1C(=O)N1CCC[C@H]1C(=O)N1CCC[C@H]1C(=O)N[C@@H](CO)C(N)=O)[C@@H](C)CC [Compound 14],,,,,,,,,3.0*** g,8.3*** g,-3.8,-9.2** mM,-9.3* mM,-8.8*** %,-2.6,-7.1*** %,Delta Blood Glucose ([3]; 8 hr post treatment): -3.1 mM; Delta Blood Glucose ([3]; 12 hr post treatment): -6.2 mM; Delta Blood Glucose ([3]; 72 hr post treatment): -7 mM
